# Key:
# Assay type in all cases: in vivo
# [1] = system: kochia (Kochia scoparia L; KCHSC); assay: Postemergence herbicidal activity of mixtures on kochia; set-up: KCHSC Ob: unit: %
# Protocol: (§1) Seeds of the desired test plant species were planted in Sun Gro MetroMix 306 planting mixture, which typically has a pH of 6.0 to 6.8 and an organic matter content of about 30 percent, in plastic pots with a surface area of 103.2 square centimeters (cm^2). When required to ensure good germination and healthy plants, a fungicide treatment and/or other chemical or physical treatment was applied. The plants were grown for 7-36 days (d) in a greenhouse with an approximate 14-hour (h) photoperiod which was maintained at about 18° C. during the day and 17° C. during the night. Nutrients and water were added on a regular basis and supplemental lighting was provided with overhead metal halide 1000-Watt lamps as necessary. The plants were employed for testing when they reached the second or third true leaf stage.
# (§2) Treatments consisted of a cereal fungicide compound (as listed in Tables 1 through 34) and the cereal herbicide, 4-amino-3-chloro-6-(4-chloro-2-fluoro-3-methoxyphenyl)pyridine-2-carboxylic acid, alone and in combination. Weighed amounts of acid, esters (methyl) or salts (triethylammonium, TEA) of 4-amino-3-chloro-6-(4-chloro-2-fluoro-3-methoxyphenyl)pyridine-2-carboxylic acid (Compound I) were placed in 25 milliliter (mL) glass vials and dissolved in a volume of 97:3 volume-to-volume (v/v) acetone/dimethyl sulfoxide (DMSO) to obtain 4.5 milligrams active ingredient per milliliter (mg ai/mL) concentrated solutions. […] The concentrated solutions of Compound I were diluted to 1.5 mg ai/mL with the addition of 2 volumes of an aqueous mixture containing acetone, water, isopropyl alcohol, DMSO, Agri-dex crop oil concentrate, and Triton® X-77 surfactant in a 64.7:26.0:6.7:2.0:0.7:0.01 v/v ratio. A dilution solution was prepared by mixing 1 volume of 97:3 v/v acetone/DMSO and 2 volumes of an aqueous mixture containing acetone, water, isopropyl alcohol, DMSO, Agri-dex crop oil concentrate, and Triton® X-77 surfactant in a 64.7:26.0:6.7:2.0:0.7:0.01 v/v ratio. Compound requirements are based upon a 12 mL application volume at a rate of 187 liters per hectare (L/ha). The concentrated solutions of the cereal fungicides were prepared following the same procedure. Weighed amounts of fungicide were placed in 25 mL glass vials and dissolved in a volume of 97:3 v/v acetone/DMSO to obtain concentrated fungicide solutions. The concentrated solutions of the safener were prepared following the same procedure. Weighed amounts of safener were placed in 25 mL glass vials and dissolved in a volume of 97:3 v/v acetone/DMSO to obtain concentrated safener solutions.
# (§3) Spray solutions of the cereal herbicide and the fungicidal compound mixtures were prepared by adding the concentrated solutions to the appropriate amount of dilution solution to form 12 mL spray solution with active ingredients in combinations. Spray solutions of the cereal herbicide, herbicide safener and the fungicidal compound mixtures were prepared by adding the concentrated solutions to the appropriate amount of dilution solution to form 12 mL spray solution with active ingredients in combinations.
# (§4) Formulated compounds were applied to the plant material with an overhead Mandel track sprayer equipped with 8002E nozzles calibrated to deliver 187 L/ha over an application area of 0.503 square meters (m^2) at a spray height of 18 inches […] above average plant canopy. Control plants were sprayed in the same manner with the solvent blank.
# (§5) The treated plants and control plants were placed in a greenhouse as described above and watered by sub-irrigation to prevent wash-off of the test compounds. After 20-22 d, the condition of the test plants as compared with that of the control plants was determined visually and scored on a scale of 0 to 100 percent where 0 corresponds to no injury and 100 corresponds to complete kill. […]
# [2] = system: scented mayweed (Matricaria chamomila L; MATCH); assay: Postemergence herbicidal activity of mixtures on scented mayweed
# Protocol: as §1, §2, §3, §4, §5
# [3] = system: Russian thistle (Salsola iberica L; SASKR); assay: Postemergence herbicidal activity of mixtures on Russian thistle
# Protocol: as §1, §2, §3, §4, §5
# [4] = system: bird's-eye speedwell (Veronica persica L; VERPE); assay: Postemergence herbicidal activity of mixtures on bird's-eye speedwell
# Protocol: as §1, §2, §3, §4, §5
# [5] = system: wild pansy (Viola tricolor L; VIOTR); assay: Postemergence herbicidal activity of mixtures on wild pansy
# Protocol: as §1, §2, §3, §4, §5
# Wheat = assay: Safening activity of herbicidal compositions on wheat (crop injury)
# Protocol: as §1, §2, §3, §4, §5
# Barley = assay: Safening activity of herbicidal compositions on barley (crop injury)
# Protocol: as §1, §2, §3, §4, §5
smiles,measurement,setting,value
"CO/C=C(/C(=O)OC)c1ccccc1Oc1cc(Oc2ccccc2C#N)ncn1 [Azoxystrobin, methyl (αE)-2-[[6-(2-cyanophenoxy)-4-pyrimidinyl]oxy]-α-(methoxymethylene)benzeneacetate]",pest or weed control at 62.5 g/ha,"[1]; Bassia scoparia, post-emergence, fungicide 62.5 g/ha alone, read-out: KCHSC Ob",0%
same,KCHSC Ob,[1]; fungicide 250 g/ha,0
same,pest or weed control at 62.5 g/ha,"[2]; Matricaria, post-emergence, fungicide 62.5 g/ha alone, read-out: MATCH Ob",0%
same,MATCH Ob,[2]; fungicide 250 g/ha,0
same,pest or weed control at 62.5 g/ha,"[3]; Salsola tragus, post-emergence, fungicide 62.5 g/ha alone, read-out: SASKR Ob",0%
same,SASKR Ob,[3]; fungicide 250 g/ha,0
same,VERPE Ob,[4]; fungicide 250 g/ha,0
same,pest or weed control at 62.5 g/ha,"[5]; Viola tricolor, post-emergence, fungicide 62.5 g/ha alone, read-out: VIOTR Ob",0%
same,TRZAS Ob,Wheat; fungicide 250 g/ha,0
same,HORVS Ob,Barley; fungicide 250 g/ha,0
COc1c(Cl)ccc(-c2nc(C(=O)O)c(Cl)c(N)c2F)c1F [Compound I Acid],KCHSC Ob,[1]; Compound I Acid 35 g/ha,98
same,MATCH Ob,[2]; Compound I Acid 35 g/ha,87
same,SASKR Ob,[3]; Compound I Acid 35 g/ha,89
same,VERPE Ob,[4]; Compound I Acid 35 g/ha,72
same,VIOTR Ob,[5]; Compound I Acid 35 g/ha,60
same,TRZAS Ob,Wheat; Compound I Acid 35 g/ha,22
same,HORVS Ob,Barley; Compound I Acid 35 g/ha,15
"N#Cc1c(Cl)c(Cl)c(Cl)c(C#N)c1Cl [Chlorothalonil, 2,4,5,6-tetrachloro-1,3-benzenedicarbonitrile]",pest or weed control at 250 g/ha,"[1]; Bassia scoparia, post-emergence, fungicide 250 g/ha alone, read-out: KCHSC Ob",0%
same,pest or weed control at 250 g/ha,"[2]; Matricaria, post-emergence, fungicide 250 g/ha alone, read-out: MATCH Ob",0%
same,pest or weed control at 250 g/ha,"[3]; Salsola tragus, post-emergence, fungicide 250 g/ha alone, read-out: SASKR Ob",0%
same,pest or weed control at 250 g/ha,"[4]; Veronica persica, post-emergence, fungicide 250 g/ha alone, read-out: VERPE Ob",0%
same,pest or weed control at 250 g/ha,"[5]; Viola tricolor, post-emergence, fungicide 250 g/ha alone, read-out: VIOTR Ob",0%
O=C(O)COc1ccc(Cl)c2cccnc12 [Cloquintocet],KCHSC Ob,[1]; Cloquintocet 4.4 g/ha,0
same,KCHSC Ob,[1]; Cloquintocet 8.75 g/ha,0
same,MATCH Ob,[2]; Cloquintocet 4.4 g/ha,0
same,MATCH Ob,[2]; Cloquintocet 8.75 g/ha,0
same,SASKR Ob,[3]; Cloquintocet 4.4 g/ha,0
same,SASKR Ob,[3]; Cloquintocet 8.75 g/ha,0
same,VERPE Ob,[4]; Cloquintocet 4.4 g/ha,0
same,VERPE Ob,[4]; Cloquintocet 8.75 g/ha,0
same,VIOTR Ob,[5]; Cloquintocet 4.4 g/ha,0
same,VIOTR Ob,[5]; Cloquintocet 8.75 g/ha,0
same,TRZAS Ob,Wheat; Cloquintocet 4.4 g/ha,0
same,TRZAS Ob,Wheat; Cloquintocet 8.75 g/ha,0
same,HORVS Ob,Barley; Cloquintocet 4.4 g/ha,0
same,HORVS Ob,Barley; Cloquintocet 8.75 g/ha,0

# Source: patent US9101136B2, “Synergistic herbicide/fungicide composition containing certain pyridine carboxylic acids and certain fungicides” (Dow AgroSciences LLC, priority 2010, dated 2015)
